Assay [1] concerns type 1 HIV virus (strain IIIB). Description: in vitro anti-HIV test, median inhibitory concentration on HIV-1. The conditions noted are these: HIV-1 Strain IIIB. The assay is classed as cell-based. How it is done: (§1) An apolar extract and a polar extract of Anthostema senegalense were prepared by extraction with dichloromethane and methanol, respectively, from dried stem bark of Anthostema senegalense.
(§2) The efficacy of these extracts against the HIV virus was tested in vitro by measuring the median inhibitory concentration (IC50) of these substances on the type 1 HIV virus (strain IIIB) and on the type 2 virus (strain ROD). Their selectivity index was also measured in each case.
(§3) In order to serve as a control, three known antiretroviral molecules used in the treatment of the infection with HIV: nevirapine, dideoxycitidine and dideoxyinosine were also tested under the same conditions for comparison.

The subject of assay [2] is type 2 virus (strain ROD). In words: in vitro anti-HIV test, median inhibitory concentration on HIV-2. Conditions: HIV-2 ROD Strain. The assay is classed as cell-based. How it is done: as §1, §2, §3

Converted amounts (≈) assume the structure as drawn. Where two headings read alike, the source gives them in different places.

With `Cc1ccnc2c1NC(=O)c1cccnc1N2C1CC1` [Nevirapine, nevirapine], the IC50 (in general, the concentration that gives 50% inhibition) is 0.047 µg/mL (≈ 0.176 µM) in assay [1] (Human immunodeficiency virus 1, read-out: IC50) and > 4 µg/mL in assay [2] (Human immunodeficiency virus 2, read-out: IC50).

As for `O=c1[nH]cnc2c1ncn2[C@H]1CC[C@@H](CO)O1` [Dideoxyinosine, dideoxyinosine], the values for the IC50 in assay [1] and in assay [2] were 2.89 µg/mL (≈ 12.2 µM) and 4.59 µg/mL (≈ 19.4 µM), respectively.

For `Nc1ccn([C@H]2CC[C@@H](CO)O2)c(=O)n1` [Dideoxycitidine, dideoxycitidine], the figures for the IC50 in assay [1] and in assay [2] were 0.29 µg/mL (≈ 1.37 µM) and 0.30 µg/mL (≈ 1.42 µM), respectively.

(Values after patent US10517826B2, “Anthostema senegalense-based composition for use as an anti-AIDS drug” (LABORATOIRE MICHEL IDERNE, priority 2014, dated 2019).)
